{"source": "patent US20100086647A1", "about": "“FEED OR FOOD PRODUCTS COMPRISING FUNGAL MATERIAL” (MEDIMUSH AS, priority 2005, published 2010)", "origin": "cited, not measured here", "key": {"S. pyogenes": {"tested_on": "S. pyogenes", "settings": "in vitro"}, "C. jejuni": {"tested_on": "C. jejuni", "settings": "postulated"}, "E. coli": {"tested_on": "E. coli", "settings": "postulated"}, "S. staphylococcus": {"tested_on": "S. staphylococcus", "settings": "in vitro"}, "B. megaterium": {"tested_on": "B. megaterium", "settings": "in vitro"}}}
{"molecule": "C1SSCSSS1", "note": "[Lenthionine]", "values": [{"measurement": "antibacterial effect", "setting": "S. pyogenes", "result": "antibacterial"}, {"measurement": "effect on microorganism", "setting": "C. jejuni", "result": "no effect"}, {"measurement": "effect on microorganism", "setting": "E. coli", "result": "no effect"}, {"measurement": "antibacterial effect", "setting": "S. staphylococcus", "result": "antibacterial"}, {"measurement": "antibacterial effect", "setting": "B. megaterium", "result": "antibacterial"}]}
{"molecule": "Lentinan", "values": [{"measurement": "expression of cytochrome P450s (CYPs)", "setting": "cytochrome P450s (CYPs)", "result": "can suppress the expression"}]}
